From patent US6770740B1, “Crosslinked DNA condesate compositions and gene delivery methods” (The Regents of the University of Michigan, priority 1999, dated 2004)
Blank lines part the entries; values can stand above or below the compound they belong to. Where a SMILES comes first, the peptide text is derived from it.

Tests used:
glutathione reductase = biological target: T1, glutathione reductase (Homo sapiens, UniProt P00390); details: challenged with glutathione reductase; Drummer et al., 1987; cited from earlier work
T1 sequence (P00390 44-522): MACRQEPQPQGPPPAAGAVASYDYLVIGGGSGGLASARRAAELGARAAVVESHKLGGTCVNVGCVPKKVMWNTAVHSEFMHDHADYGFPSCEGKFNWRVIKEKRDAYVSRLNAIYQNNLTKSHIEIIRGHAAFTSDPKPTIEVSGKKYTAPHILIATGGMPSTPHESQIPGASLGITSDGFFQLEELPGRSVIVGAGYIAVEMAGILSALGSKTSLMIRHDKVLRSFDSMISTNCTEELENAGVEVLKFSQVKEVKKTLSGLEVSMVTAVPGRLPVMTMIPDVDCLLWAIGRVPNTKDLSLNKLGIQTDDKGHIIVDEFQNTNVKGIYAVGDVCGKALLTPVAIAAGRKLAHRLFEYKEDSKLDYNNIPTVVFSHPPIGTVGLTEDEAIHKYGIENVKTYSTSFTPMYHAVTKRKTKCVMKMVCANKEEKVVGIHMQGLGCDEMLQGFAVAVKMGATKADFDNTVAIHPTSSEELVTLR

[1] = Kinetics of peptide oxidation (disulfide bond formation) in solution by ES-MS; format: physicochemical; details: pH 7.5, free in solution
Protocol: The kinetics of disulfide bond formation in solution was monitored by […]. […] Single ion monitoring (SIM) scans were taken at 20 sec intervals over 2 h while monitoring the disappearance of the M+2H^+ parent ion (1258 amu) and formation of the M+2H^+ ion of the oxidized species (1256 amu).

plasmid DNA [2] = assay: Kinetics of peptide cross-linking on DNA (SYBR-Gold fluorescence), Example 5; format: physicochemical; details: charge ratio 2:1
Protocol: The kinetics of cross-linking within peptide DNA condensates was studied indirectly by monitoring the displacement of SYBR-Gold™ intercalator dye from DNA condensates as a function of time. Peptide DNA condensates were prepared (200 μl of 50 μg/ml) at a peptide stoichiometry of 0.4 nmol per μg of DNA. Immediately after mixing peptide and DNA, a 10 μl aliquot was combined with 990 μl of SYBR-Gold™ (1X) and the fluorescence intensity (Ex 495 nm, Em 537 nm) was continuously monitored for 30 min.
The rate of cross-linking was also examined as a function of peptide concentration. The stoichiometry of peptide IV was increased from 0.4 to 1.2 nmol per μg of DNA and the rate of declining fluorescence intensity was determined as described above.

[3] = QELS particle size and zeta potential of cross-linking peptide DNA condensates, Example 5; format: physicochemical
Protocol: The particle size of each peptide DNA condensate was determined by quasielastic light scattering (QELS) at a scatter angle of both 15° and 90° on a Brookhaven ZetaPlus™ particle sizer. Condensates were prepared at a DNA concentration of 50 μg/ml in 400 μl HBM at a stoichiometry of 0.4 nmol of peptide per μg of DNA corresponding to a charge ratio of approximately 2:1 for each. The mean diameter and population distribution were computed from the diffusion coefficient using a unimodal cummulant analysis supplied by the manufacturer.
The particle size and zeta peptide IV DNA condensates were determined by titrating 7.5 to 37.5 nmol of peptide with 75 μg of DNA in 1.5 ml of HBM to produce 50 μg/ml DNA condensates with charge ratio of 0.5-2.5. The zeta potential was averaged from 10 determines.

[4] = Shear stress stability of cross-linked DNA condensates (salt sonication), Example 5; format: physicochemical
Protocol: Peptide DNA condensates (200 μl of 50 μg/ml) were formed and incubated at RT for 30 min and then combined with 0 to 200 μl of 5 M sodium chloride and normalized to 400 μl with HBM to achieve a final sodium chloride concentration of 0, 0.2, 0.4, 0.8, 1.0, 1.5, 2.0, and 2.5 M. Each sample was sonicated for 30 sec with a 100 W Microson™ XL-2000 ultrasonic probe homogenizer (Kontes, Vineland N.J.) with a vibrational amplitude of 6 to fragment uncondensed DNA (Adami et al., 1998). DNA condensates were digested with 30 μg of trypsin for 12 h at 37° C. then electrophoresed on an agarose gel and visualized by ethidium bromide staining.

plasmid DNA [5] = assay: Thiazole orange displacement titration of peptide binding to DNA, Example 6; details: titration across charge ratios 0.25-8
Protocol: Peptide DNA condensates were prepared by combining 50 μg of DNA in 500 μl of Hepes buffered mannitol (HBM) (5 w/v% mannitol, 5 mM Hepes, pH 7.5) with […] of peptide in 500 μl of HBM while vortexing to form peptide DNA condensates with a calculated primary amine to phosphate charge ratio between 0.25 and 8.0 (NH4^+:PO4). The condensates were allowed to cross-link for 30 min prior to performing physical measurements. The binding of each peptide to DNA was assayed by combining peptide DNA condensates (50 μl) with 950 μl of HBM containing 0.1 μM thiazole orange. The fluorescence of the intercalated dye was measured using an LS50B fluorometer (Perkin Elmer, UK) by exciting at 500 nm while monitoring emission at 530 nm with the slit width set at 15 and 20 nm, respectively. Fluorescence blanks were substracted from all values before data analysis.

[6] = QELS particle size and zeta potential of peptide DNA condensates, Example 6; format: physicochemical; details: charge ratio 4:1, 50 μg/ml DNA in HBM; for Particle Size (nm): 90°, average and SD of three, No particles formed; for Zeta Potential (mV): average and SD of ten
Protocol: The particle size and zeta potential of peptide DNA condensates were determined by quasielastic light scattering (QELS) using a Brookhave ZetaPlus™. Particle size analysis was performed in triplicate at a DNA concentration of 50 μg/ml in HBM at a charge ratio of 4:1 and a scattering angle of 90°. Data analysis utilized a multimodal volume distribution option included with the instrument. Zeta potential was also determined using 50 μg/ml peptide DNA condensates prepared at a 4:1 charge ratio in HBM. The reported zeta potential was averaged from ten determinations.

CHO cells = assay: Luciferase gene expression in CHO cells, Example 6; format: cell-based; details: 80 μM chloroquine
plasmid DNA [7] = assay: Kinetics of peptide cross-linking on DNA (SYBR-Gold), Example 6; format: physicochemical; details: charge ratio 4:1
Protocol: The kinetics of disulfide bond formation of peptides bound to DNA was analyzed indirectly by monitoring the displacement of SYBR-Gold™ from DNA condensates. Peptide DNA condensates were formed by combining 20 μg of DNA in 500 μl of HBM containing 1× SYBR-Gold™ with 500 μl (26-52 nmol) of peptide in HBM containing 1 × SYBR-Gold to achieve a charge ratio of 4:1 (NH4^+:PO4). The fluorescence intensity (Ex 495 nm, Em 600 nm) was continuously monitored for 30 min to determine kinetics of cross-linking.

HepG2 cells = assay: Luciferase gene expression in HepG2 cells, Example 6; format: cell-based; details: HepG2, absence of chloroquine
Protocol: HepG2 cells (1.5×10^5) were plated on 6×35 mm wells and grown to 50% confluencey in MEM supplemented with 10% FBS, penicillin and streptomycin (100 U/ml), sodium pyruvate (100 mM), and L-glutamine (2 mM). Transfections were performed in MEM (2 ml per 35 mm well) with 2% FBS with and without 80 μM chloroquine. Peptide DNA condensates (10 μg of DNA of 0.2 ml HBM) were added dropwise to triplicate wells. After a 5 h incubation at 37° C., the medium was replaced with MEM supplemented with 10% FBS. After 24 h, cells were washed with ice-cold phosphate buffered saline (calcium and magnesium free) and then treated with 0.5 ml of ice-cold lysis buffer (25 mM) Tris chloride pH 7.8, 1 mM EDTA, 8 mM magnesium chloride, 1% Triton X-100, 1 mM DTT) for 10 min. The cell lysates were scraped, transferred to 1.5 ml microcentrifuge tube, and centrifuged for 7 min at 13,000 g at 4° C. to pellet debris.
Lysis buffer (300 μl), sodium-ATP (4 μl of a 180 mM solution, pH 7, 4° C.) and cell lysate (100 μl, 4° C.) were combined in a test tube, briefly mixed and immediately placed in the luminometer. Luciferase relative light units (RLU) were recorded on a Lumat™ LB 9501 (Berthoid Systems, Germany) with 10 sec integration after automatic injection of 100 μl of 0.5 mM D-luciferin (prepared fresh in lysis buffer without DTT). The RLU were converted into fmol using a standard curve generated by adding a known amount of luciferase (0.01 to 100 fmols with specific activity of 2.5 nU/fmol) to 35 mm wells containing 50% confluent cells and lysis buffer. Protein concentrations were measured by Bradford assay using bovine serum albumin as a standard (Bradford, 1976). […]
LipofectAce™ (Gibco BRL, 1:2.5 w/w dimethyl dioctadecylammonium bromide and dioleoyl phosphatidylethanolamine) was used to mediate gene transaction according to the manufacturer's instructions. […] The cells were incubated for a total of 24 h, harvested and analyzed for luciferase as described above.

[8] = Shear stress stability (salt sonication assay), Example 6; format: physicochemical; details: 30 sec sonication
Protocol: The relative stability of peptide DNA condensates were examined using a salt sonication assay (Adami and Rice, 1999). Peptide DNA condensates (200 μl of 50 μg/ml) were formed as described above, incubated at RT for 30 min and then combined with 0-200 μl of 5 m […] and normalized to 400 μl with HBM to achieve a final sodium chloride concentration of 0, 0.2, 0.4, 0.8, 1.0, 1.5, 2.0 and 2.5 M. Each sample was sonicated for 30 sec with a 100 W Microson™ XL-2000 ultrasonic probe homogenizer (Kontes, Vineland N.J.) with a vibrational amplitude of 5 fragment uncondensed DNA. DNA condensates were digested with 30 μg to trypsin for 12 h at 37° C., electrophoresed on a 1% agarose gel electrophoresed in TEA buffer for 2 h, then visualized by ethidium bromide staining and destaining prior to photography on a transilluminator.

COS 7 cells = assay: Luciferase gene expression in COS 7 cells, Example 6; format: cell-based; details: COS 7, 80 μM chloroquine

Compound: CC(C)(SSC(C)(C)C(N)C(=O)O)C(N)C(=O)O (stereo not shown) [Penicillamine disulfide]
stability relative to cystine (glutathione reductase): approximately 26 fold

Compound: NCCCC[C@H](NC(=O)[C@H](CCCCN)NC(=O)[C@H](CCCCN)NC(=O)[C@H](CCCCN)NC(=O)[C@H](CS)NC(=O)[C@H](CCCCN)NC(=O)[C@H](CCCCN)NC(=O)[C@H](CCCCN)NC(=O)[C@H](CS)NC(=O)[C@H](CCCCN)NC(=O)[C@H](CCCCN)NC(=O)[C@H](CCCCN)NC(=O)[C@H](CS)NC(=O)[C@H](CCCCN)NC(=O)[C@H](CCCCN)NC(=O)[C@H](CCCCN)NC(=O)[C@H](CCCCN)NC(=O)[C@H](Cc1c[nH]c2ccccc12)NC(=O)[C@@H](N)CS)C(=O)N[C@@H](CS)C(=O)O [V, Cys-Trp-Lys4-Cys-Lys3-Cys-Lys3-Cys-Lys4-Cys] (H-CWKKKKCKKKCKKKCKKKKC-OH; N-terminus and C-terminus assumed)
half-life at 100 µM ([1]; methanol/ammonium acetate solution, read-out: t½ of disappearance of the parent ion (intra-molecular disulfide formation)): ~10 min
time to complete disappearance of the parent ion [1]: ≤ 25 min
time of inter-peptide cross-linking on DNA (plasmid DNA [2]): less than 30 min
Particle Size Mean Diameter, Oxidized, 15° ([3]; HBM after 2 h incubation, 50 μg/ml DNA, 0.4 nmol peptide per μg DNA, scattering angle 15°): 41 nm
Particle Size Mean Diameter, Oxidized, 90° ([3]; HBM after 2 h incubation, 50 μg/ml DNA, 0.4 nmol peptide per μg DNA, scattering angle 90°): 57 nm
Particle Size Mean Diameter, Saline ([3]; HBM with added saline (0.15 M) after 15 min): 93 nm
Particle Size Mean Diameter, Reduced ([3]; following addition of TCEP (1 mM)): 171 nm
sodium chloride concentration of DNA condensate stability after reduction ([4]; DNA condensates reduced with TCEP): 0.4 M
sodium chloride concentration above which DNA was not protected, pre-oxidized peptide ([4]; peptide fully oxidized prior to making DNA condensates): 0.4 M

charge ratio (NH4+:PO4) needed to condense DNA (thiazole orange fluorescence minimum) (plasmid DNA [5]): 3
Compound: Cys-(Lys)4-Cys (CKKKKC) [Peptide 5]
Particle Size (nm) [6]: 38 ± 10 nm
gene expression relative to peptide 3, 6 and 7 (CHO cells): three-orders of magnitude lower

Compound: Cys-(Lys)4-His-(Lys)3-Cys (CKKKKHKKKC) [Peptide 12]
time to completion of cross-linking on DNA (SYBR-Gold asymptote) (plasmid DNA [7]): less than 10 min
Particle Size (nm) [6]: 87 ± 20 nm
Zeta Potential (mV) [6]: 30 ± 2 mV
higher gene expression compared to peptide 7 DNA condensates (HepG2 cells): 3 fold

charge ratio (NH4+:PO4) needed to condense DNA (thiazole orange fluorescence minimum) (plasmid DNA [5]): 2
Compound: Cys-(Lys)8-Cys (CKKKKKKKKC) [Peptide 7]
sodium chloride concentration at which DNA condensates dissociate [8]: 0.8 to 1 M
Particle Size (nm) [6]: 53 ± 16 nm
Zeta Potential (mV) [6]: 26 ± 2 mV
lower gene expression relative to peptide 3, 5 and 6 DNA condensates (COS 7 cells): 5 fold
